Laboratory results reported in patent publication US10953115B2, “Production of sterile active pharmaceutical ingredients” (Icrom S.R.L., priority 2012, dated 2021).

Columns and labels:
[1] = stated as reason why sterile filtration is not achievable; cited from earlier work
[2] = Appearance and related substances (USP Brinzolamide monograph) after gamma-ray sterilisation; type: physicochemical
Experimental: All the analysis were performed according to USP Brinzolamide monograph, sterility and bioburden test were performed according to Eur. Ph. and USP.
Two related substances (impurities) are described in the USP monograph: Impurity A and Impurity B.
The material was tested according to USP, details about appearance of the powder, related substances and sterility were given in Table 1.
The material was tested according to USP, details about appearance of the powder, related substances and sterility were given in Table 2.
The material was tested according to USP, details about appearance of the powder, related substances and sterility were given in Table 3.
The material was tested according to USP, details about appearance of the powder, related substances and sterility were given in Table 4.
The material was tested according to USP, details about appearance of the powder, related substances and sterility were given in Table 5.

[3] = micronised, LDPE liner in double barrier foil (no vacuum), 25 KGy, RT
[4] = micronised, packed under vacuum, 25 KGy, RT
[5] = micronised, under vacuum and helium, 25 KGy, −78° C.
[6] = micronised, under vacuum and nitrogen, 25 KGy, −78° C.
[7] = not-micronized, LDPE liner in barrier foil, 10 KGy, RT
[8] = not-micronized, LDPE liner in barrier foil, 15 KGy, RT
[9] = not-micronized, LDPE liner in barrier foil, 20 KGy, RT
[10] = not-micronized, LDPE liner in barrier foil, 25 KGy, RT

- Compliance with USP specification ([2]; Example 2: micronised, no vacuum, 25 KGy, RT): does not complies with USP specification
- Compliance with USP specification ([2]; Example 3: micronised, under vacuum, 25 KGy, RT): complies with USP specification
- Compliance with USP specification ([2]; Example 4: micronised, under vacuum and nitrogen, 25 KGy, −78° C.): complies with USP specification
- Compliance with USP specification ([2]; Example 5: micronised, under vacuum and helium, 25 KGy, −78° C.): complies with USP specification
- Appearance [2, 3]: Almost White powder
- Impurity A [2, 3]: Not detected
- Impurity B [2, 3]: 0.29%
- Impurity C [2, 3]: <0.05%
- Impurity D [2, 3]: 0.62%
- Total Impurities [2, 3]: 1.4%
- Appearance [2, 4]: White powder
- Impurity A [2, 4]: Not detected
- Impurity B [2, 4]: 0.09%
- Impurity C [2, 4]: <0.05%
- Impurity D [2, 4]: 0.30%
- Total Impurities [2, 4]: 0.6%
- Appearance [2, 5]: White powder
- Impurity A [2, 5]: Not detected
- Impurity B [2, 5]: 0.06%
- Impurity C [2, 5]: <0.05%
- Impurity D [2, 5]: 0.11%
- Total Impurities [2, 5]: 0.2%
- Appearance [2, 6]: White powder
- Impurity A [2, 6]: Not detected
- Impurity B [2, 6]: 0.08%
- Impurity C [2, 6]: <0.05%
- Impurity D [2, 6]: 0.16%
- Total Impurities [2, 6]: 0.3%
- Appearance [2, 7]: White powder
- Impurity A [2, 7]: Not detected
- Impurity B [2, 7]: 0.06%
- Impurity C [2, 7]: <0.05%
- Impurity D [2, 7]: 0.11%
- Total Impurities [2, 7]: 0.2%
- Appearance [2, 8]: White powder
- Impurity A [2, 8]: Not detected
- Impurity B [2, 8]: 0.07%
- Impurity C [2, 8]: <0.05%
- Impurity D [2, 8]: 0.14%
- Total Impurities [2, 8]: 0.2%
- Appearance [2, 9]: Greenish powder
- Impurity A [2, 9]: Not detected
- Impurity B [2, 9]: 0.10%
- Impurity C [2, 9]: <0.05%
- Impurity D [2, 9]: 0.19%
- Total Impurities [2, 9]: 0.3%
- Appearance [2, 10]: Greenish powder
- Impurity A [2, 10]: Not detected
- Impurity B [2, 10]: 0.10%
- Impurity C [2, 10]: <0.05%
- Impurity D [2, 10]: 0.21%
- Total Impurities [2, 10]: 0.4%
Compound: CCN[C@H]1CN(CCCOC)S(=O)(=O)c2sc(S(N)(=O)=O)cc21 [Brinzolamide]
- Solubility [1]: poor solubility
- Compliance with USP specifications ([2]; Example 1: not-micronized, 10, 15, 20 and 25 KGy, RT): complies with the USP specifications apart the appearance of the powder in the 20 and 25 KGy trials
